{
  "source": "patent EP0292255A2",
  "about": "“Inhibitor of ribonucleotide reductase” (Merck & Co., Inc., priority 1987, dated 1988)",
  "origin": "cited, not measured here",
  "test_system": "ribonucleotide reductase enzyme of herpes simplex virus",
  "settings": "result in words, from Nature 321:439-441 and 441-443 (1986)",
  "note": "Ends that are not written are not given here.",
  "data": [
    {"substance": "Tyr Ala Gly Ala Val Val Asn Asp Leu (YAGAVVNDL; printed: Tyr Ala Gly Ala Val Val Asn Asp Leu) [nonapeptide disclosed by Dutia et al. and Cohen et al]", "values": [
      {"measurement": "inhibition of the activity of the ribonucleotide reductase enzyme of herpes simplex virus in vitro", "result": "inhibited"}
    ]},
    {"substance": "YGAVVNDL [8-desalanine homolog of the nonapeptide, disclosed by Dutia et al]", "values": [
      {"measurement": "inhibition of the activity of the ribonucleotide reductase enzyme of herpes simplex virus in vitro", "result": "inhibited"}
    ]}
  ]
}
